Reference: paper PMC9863691, “A Novel Ferroptosis Inhibitor UAMC-3203, a Potential Treatment for Corneal Epithelial Wound” (Pharmaceutics, 2022)
≈ marks a conversion by molar mass, not a printed value.

Legend:
solubility in buffers = assay type: physicochemical; conditions: for water solubility: room temperature, 72 h
Description: Compound UAMC-3203 was synthetized in the laboratory of Medicinal Chemistry at the University of Antwerp, as reported by Devisscher L. et al.. Solubility of UAMC-3203 was determined in 0.1 M citrate buffer (pH 5 and pH 6) and phosphate-buffered saline (PBS, Gibco, Life Technologies Limited, Paisley, UK) at pH 7.4. Excess of UAMC-3203 (10–20 mg) was added to 500 µL of buffer in glass vials that were kept at room temperature and mixed (150 rpm) for 72 h. The pH of the solutions was measured daily with calibrated pH meter (Orion Research Incorporated, Boston, MA, USA) and adjusted if needed (with 0.1 N sodium hydroxide or 0.1 N hydrochloric acid). After 72 h, samples were withdrawn and centrifuged at 13,000 rpm for 15 min. The supernatant was collected and analyzed by high-pressure liquid chromatography (HPLC) for UAMC-3203 concentration.
The quantitation of UAMC-3203 was performed with […] reverse-phase HPLC system consisting of a degasser (G1379B), multi-sampler (G1367D), a binary pump (G1312B), a thermostat (G1316B), and a diode array detector (DAD) detector (G1315C). A Zorbax Eclipse XDB-C18 (4.6 × 50 mm, 4 μm; Agilent Technologies, Santa Clara, CA, USA) column was used for the analyses. The mobile phase was composed of 0.1% […] (Sigma-Aldrich, St. Louis, MO, USA) in Milli-Q-H2O and 0.1% […] in acetonitrile (LC-MS Chromasolv, Honeywell, Riedel-de Haen, Seelze, Germany) (65:35% v/v). Isocratic analysis was performed at a flow rate of 1 mL/min. The injection volume was 5 μL, and the detection wavelength was 240 nm.

[1] = drug distribution in porcine cornea ex vivo; assay type: in vitro ADME
Description: Fresh porcine (a crossbreed between Matias and Yorkside) eyes were collected in the laboratory animal center at the University of Eastern Finland. The eyes were stored overnight in a keratinocyte serum-free medium (Gibco, Life Technologies Corporation, Grand Island, NY, USA) at +4 °C. The cornea was excised using an incision along the limbus, as described earlier.
The isolated corneas were rinsed with PBS and mounted in vertical Franz diffusion cells (PermeGear, Inc., Hellertown, PA, USA). Small magnetic stir bars were added to each receiver chamber, and 5 mL of 35 °C BSS Plus supplemented with 10 mM of 4-(2-hydroxyethyl)-1-piperazineethanesulfonic acid (HEPES; Lonza Bioscience, Walkersville, MD, USA) was added to the receiver compartment of each Frantz cell. The experiment was initiated by adding 50 µM UAMC-3203 in 10 mM HEPES-BSS Plus solution to the donor compartment. Samples of 500 µL from donor compartments and corneas were collected at the end of the experiments (at 5, 30, 60, and 120 min). The cornea samples were rinsed with PBS, the epithelial layer was scraped off from the corneas, and the remaining stroma–endothelium samples were cut to pieces. The experiments were carried out in triplicates. The samples were stored at −80 °C until liquid chromatography–tandem mass spectrometry (LC-MS/MS) analyses were performed.
The values of apparent partition coefficients (Kp) were calculated using drug concentrations on the tissue samples (at 120 min) and in the donor compartment buffer at time zero (ng/mL).
Quantitative analysis of UAMC-3203 was performed with the LC-MS/MS system that consisted of an Agilent 1290 series liquid chromatograph connected to an Agilent 6495 triple-quadruple mass spectrometer (Agilent Technologies, Inc., USA). The mobile phase consisted of 0.1% formic acid (Fisher chemical, Geel, Belgium), 1 mM ammonium formate (Honeywell, Fluka, Seelze, Germany) in Milli-Q-H2O (eluent A), and acetonitrile (LC-MS Chromasolv, Honeywell, Riedel-de Haen, Seelze, Germany) (eluent B). Gradient elution was used: 0.0 to 3.0 min: 25%→95% B, 3.0 to 3.5 min: 95% B, 3.5 to 3.6 min: 95%→25% B, 3.6 to 5.0 min 25% B. Solvent flow was 0.3 mL/min, and Poroshell 120 SB-C18 column (2.1 mm × 50 mm, 2.7 µm, Agilent Technologies, Inc., USA) was maintained at 60 °C. The injection volume was 2 µL. Nitrogen was used as a drying, nebulizer, and collision gas. The following conditions were used in the electrospray ion source: positive ion mode, sheath gas flow rate 11 L/min at 350 °C, drying gas flow rate 16 L/min at 200 °C, nebulizer gas pressure adjusted to 25 psi, capillary voltage 3500 V (ESI+), fragmentor voltage 380 V, dwell time 150 ms and cell accelerator voltage 5 V. The data were analyzed with Agilent Mass Hunter Quantitative Analyzed software (vB.09.00, build 9.0.647.0, Agilent Technologies, CA, USA). The precursor and fragment ions are presented in Supplementary Table S1.

[2] = test system: human corneal epithelial (HCE) cells; assay: in vitro scratch assay; assay type: cell-based; conditions: for HCE cell migration (%): 72 h, negative control 55.6 ± 17.6%
Description: In vitro scratch assay was performed in confluent HCE monolayer as previously reported. HCE cells were seeded on 24-well plates at 1 × 10^5 cells/well incubated for 24 h. The monolayer was scratched with sterile 10 µL pipette tips perpendicular to the lines to create a consistent cell-free area. The cells were washed three times with pre-warmed PBS to remove detached cells. The cells were then exposed to UAMC-3203 at different concentrations (10 nM, 1 µM, 10 µM, 50 µM) in serum-free DMEM (Dulbecco’s Modified Eagle Medium): F12 media that was supplemented with 1% penicillin-streptomycin solution […] penicillin, 0.1 mg/mL streptomycin (Corning, Ref 30-002-CI, Mediatech Inc., Discovery Boulevard, Manassas, VA, USA). Serum-free medium was used as a negative control, and 1.5% fetal bovine serum (FBS 10270, Gibco by Life Technologies, Carlsbad, CA, USA) supplemented medium was used as a positive control. The well plates were then transferred to Cell-IQ (CM Technologies Limited, Tampere, Finland) and maintained in standard tissue culture conditions (37 °C, 5% CO2-atmosphere).
Images were taken immediately after scratch (less than 1 h) and at 6, 12, 24, 30, 42, 48, and 72 h and analyzed by Cell-IQ analyzer. Three independent experiments were performed, using two to three wells for each stimulating condition. Cell migration (A%) was calculated as follows:(1) A%=A0−At/A0×100 where A0 and At represent the wound areas at 0 h and each timepoint, respectively.

O=S(=O)(NCCN1CCNCC1)c1ccc(NC2CCCCC2)c(NCc2ccccc2)c1 [UAMC-3203]
solubility at pH 6.0 and 7.4 relative to pH 5.0 (solubility in buffers): about 3.5 times | water solubility (solubility in buffers; pH 5.0, 0.1 M citrate buffer): 36.7 ± 5.7 µM (≈ 17.3 µg/mL) | water solubility (solubility in buffers; pH 6.0, 0.1 M citrate buffer): 127.9 ± 16.1 µM (≈ 60.3 µg/mL) | water solubility (solubility in buffers; pH 7.4, PBS): 127.3 ± 17.3 µM (≈ 60 µg/mL) | Kp epithelium/donor relative to Kp stroma/epithelium [1]: ≈ 52 times | levels in epithelium higher than in stroma–endothelium ([1]; 50 µM donor): 1–2 orders of magnitude | level in the cornea at 5 min ([1]; 50 µM donor, 5 min): ≈ 20 µM | Kp epithelium/donor ([1]; 50 µM donor, 120 min): 1.95 ± 0.45 | Kp stroma/epithelium ([1]; 50 µM donor, 120 min): 0.04 ± 0.02 | epithelium concentration relative to stroma at 120 min ([1]; 120 min): ≈ 28 times | concentration in corneal epithelium relative to corneal stroma ([1]; over the time points): 12–38 fold | HCE cell migration (%) ([2]; 10 nM): 84.9 ± 12.5% | HCE cell migration (%) ([2]; 1 µM): 76.6 ± 15.2% | cell migration compared to negative control ([2]; 10 µM): no notable difference at any time point | change of scratch area ([2]; 50 µM): did not cause any changes in the scratch area | optimal concentration for corneal epithelial wound healing effect in vitro ([2]; in vitro): 10 nM
